Measured values taken from patent US6579882B2, “Cell adhesion-inhibiting antiinflammatory compounds” (Abbott Laboratories, priority 1998, dated 2003).

Assays:
E-Selectin = assay: CAM ELISA: E-selectin expression on TNF-stimulated HUVECs; assay type: cell-based; conditions: 1 μM compound, primary human umbilical vein endothelial cells, compound 24 hours, then TNF 5 ng/mL 6 hours; for inhibition at 1 µM: Homo sapiens, Endothelial cell
Description: (§1) Pooled primary human umbilical vein endothelial cells (HtVEC's) (Clonetics) between passages 3 and 7 were plated in 96-well plates (Costar), 100 μL/well, 5×10^4 cells/mL in Clonetics EBM/2% FBS/EGF/Bovine brain extract/gentamicin in the absence of hydrocortisone. The following day, compounds of the invention were added in 10 μL/well medium, and the plates were incubated at 37° C. 24 hours after compound addition, TNF (Gibco/BRL) in 10 μL/well medium was added to a final concentration of 5 ng/mL, and the cells were incubated an additional 6 hours at 37° C. Then media was removed, and the plates were washed once with D-PBS (Gibco/BRL) and treated with primary antibodies (Becton Dickinson, City), 100 μL/well in D-PBS/2% BSA (Sigma)/0.01% azide. Primary antibodies at an initial concentration of 1 mg/mL were used at the following dilutions: anti-ELAM-1, 1:2000, anti-ICAM-1, 1:2000 and anti-VACM-1, 1:3000. Plates were stored overnight at 4° C., washed 3 times with D-PBS, and treated with secondary antibody (Jackson Labs), 100 μL/well 1:8000 dilution HRP-conjugated donkey anti-mouse IgG(H+L) in D-PBS/2%BSA. Plates were incubated a minimum of 1 hour at room temperature, washed 3 times with D-PBS and treated with 100 μL of orhto-phenylene diamine-2 HCl reagent per well. Plates were developed approximately 15 minutes and neutralized with 100 μL/well 1N sulfuric acid. Absorbance was read at 490 nm.

ICAM-1 = assay: CAM ELISA: ICAM-1 expression on TNF-stimulated HUVECs; assay type: cell-based; conditions: 1 μM compound, primary human umbilical vein endothelial cells, compound 24 hours, then TNF 5 ng/mL 6 hours; for inhibition at 1 µM: Homo sapiens, Endothelial cell
Description: as §1

VCAM-1 = assay: CAM ELISA: VCAM-1 expression on TNF-stimulated HUVECs; assay type: cell-based; conditions: 1 μM compound, primary human umbilical vein endothelial cells, compound 24 hours, then TNF 5 ng/mL 6 hours; for inhibition at 1 µM: Homo sapiens, Endothelial cell
Description: as §1

`Cc1ccc(Sc2ncnc3c(C)c(C(N)=O)sc23)cc1` [Example 16, 7-methyl-4-[(4-methylphenyl)thio]thieno[3,2-d]pyrimidine-6-carboxamide] showed an inhibition at 1 µM (E-Selectin) of 35%, an inhibition at 1 µM (ICAM-1) of 32% and an inhibition at 1 µM (VCAM-1) of 19%. For the same compound, the melting point was 243 to 246 °C.
With `NC(=O)c1cc2c(Sc3ccccn3)cncc2s1` [Example 20, 4-(2-pyridinylthio)thieno[2,3-c]pyridine-2-carboxamide] the inhibition at 1 µM (E-Selectin) was 55%, the inhibition at 1 µM (ICAM-1) was 46% and the inhibition at 1 µM (VCAM-1) was 26%. It also gave a melting point of 239 to 242 °C.
Compound `NC(=O)c1cc2c(SCc3ccc(Cl)cc3)cncc2s1` [Example 54, 4-[[(4-chlorophenyl)methyl]thio]thieno[2,3-c]pyridine-2-carboxamide] has an inhibition at 1 µM (E-Selectin) of 74%, an inhibition at 1 µM (ICAM-1) of 59% and an inhibition at 1 µM (VCAM-1) of 33%. The melting point was 198 to 199 °C.
Work on `OCc1cc2c(Oc3ccc(Cl)cc3)cncc2s1` [Example 90, 4-(4-chlorophenoxy)thieno[2,3-c]pyridine-2-methanol] yielded an inhibition at 1 µM (E-Selectin) of 47%, an inhibition at 1 µM (ICAM-1) of 51% and an inhibition at 1 µM (VCAM-1) of 27%. It also gave a melting point of 90 to 91 °C.
`NNC(=O)c1cc2c(Oc3ccc(C(F)(F)F)cc3)cncc2s1` [Example 158, 4-[4-(Trifluoromethyl)phenoxy]thieno[2,3-c]pyridine-2-carbohydrazide] gave an inhibition at 1 µM (E-Selectin) of 61%, an inhibition at 1 µM (ICAM-1) of 65% and an inhibition at 1 µM (VCAM-1) of 26%. It also gave a melting point of 146 to 147 °C.
For `CCOCCOCCOCC1(c2ccc(Oc3cncc4sc(-c5nnc(N)o5)cc34)cc2)CC1` [Example 228, 5-{4-[4-(1-{[2-(2-Ethoxyethoxy)ethoxy]methyl}cyclopropyl)phenoxy]thieno[2,3-c]pyridin-2-yl}-1,3,4-oxadiazol-2-amine], the “CAM ELISA % Inhibition at 1 μM E-Selectin” value (E-Selectin) was 67%, the inhibition at 1 µM (E-Selectin) was 70% and the “CAM ELISA % Inhibition at 1 μM ICAM-1” value (ICAM-1) was 64%. The inhibition at 1 µM (ICAM-1) was 68%, the “CAM ELISA % Inhibition at 1 μM VCAM-1” value (VCAM-1) was 52% and the inhibition at 1 µM (VCAM-1) was 54%. It also gave a melting point of 113 to 114 °C.
`NC(=NO)c1cc2c(Oc3ccc(Cl)cc3)cncc2s1` [Example 249, 4-(4-Chlorophenoxy)-N′-hydroxythieno[2,3-c]pyridine-2-carboximidamide] gave an inhibition at 1 µM (E-Selectin) of 75%, an inhibition at 1 µM (ICAM-1) of 69% and an inhibition at 1 µM (VCAM-1) of 61%. It also gave a melting point of 194 to 196 °C.
Work on `NC(=O)/C=C/c1cc2c(Oc3ccc(Br)cc3)cncc2s1` [Example 259, (E)-3-[4-(4-Bromophenoxy)thieno[2,3-c]pyridin-2-yl]propenamide] yielded an inhibition at 1 µM (E-Selectin) of 63%, an inhibition at 1 µM (ICAM-1) of 59% and an inhibition at 1 µM (VCAM-1) of 57%. It also gave a melting point of 195 to 196 °C.
With `Nc1ccc(-c2cc3c(Oc4ccc(Cl)cc4)cncc3s2)cn1` [Example 274, 5-[4-(4-Chlorophenoxy)thieno[2,3-c]pyridin-2-yl]-2-pyridinamine] the inhibition at 1 µM (E-Selectin) was 65%, the inhibition at 1 µM (ICAM-1) was 71% and the inhibition at 1 µM (VCAM-1) was 44%. For the same compound, the melting point was 208 to 210 °C.
`Cc1nc(-c2cc3c(Oc4ccc(Cl)cc4)cncc3s2)no1` [Example 279, 4-(4-Chlorophenoxy)-2-(5-methyl-1,2,4-oxadiazol-3-yl)thieno[2,3-c]pyridine] showed an inhibition at 1 µM (E-Selectin) of 30%, an inhibition at 1 µM (ICAM-1) of 40% and an inhibition at 1 µM (VCAM-1) of 24%. It also gave a melting point of 120 to 121 °C.
In the case of `Cn1c(N)nnc1-c1cc2c(Oc3ccc(Cl)cc3)cncc2s1` [Example 283, 5-[4-(4-Chlorophenoxy)thieno[2,3-c]pyridin-2-yl]-4-methyl-4H-1,2,4-triazol-3-amine], the inhibition at 1 µM (E-Selectin) was 39%, the inhibition at 1 µM (ICAM-1) was 57% and the inhibition at 1 µM (VCAM-1) was 52%. The melting point was 233 to 235 °C.
Compound `FC(F)(F)c1nc(-c2cc3c(Oc4ccc(Cl)cc4)cncc3s2)no1` [Example 284, 4-(4-Chlorophenoxy)-2-[5-(trifluoromethyl)-1,2,4-oxadiazol-3-yl]thieno[2,3-c]pyridine] has an inhibition at 1 µM (E-Selectin) of 56%, an inhibition at 1 µM (ICAM-1) of 68% and an inhibition at 1 µM (VCAM-1) of 45%. It also gave a melting point of 52 to 54 °C.
Work on `Nc1noc(-c2cc3c(Oc4ccc(Cl)cc4)cncc3s2)n1` [Example 285, 5-[4-(4-Chlorophenoxy)thieno[2,3-c]pyridin-2-yl]-1,2,4-oxadiazol-3-amine] yielded an inhibition at 1 µM (E-Selectin) of 56%, an inhibition at 1 µM (ICAM-1) of 65% and an inhibition at 1 µM (VCAM-1) of 50%. For the same compound, the melting point was 217 to 219 °C.
Work on `CNc1nnc(-c2cc3c(Oc4ccc(Cl)cc4)cncc3s2)s1` [Example 286, 5-[4-(4-Chlorophenoxy)thieno[2,3-c]pyridin-2-yl]-N-methyl-1,3,4-thiadiazol-2-amine] yielded an inhibition at 1 µM (E-Selectin) of 54%, an inhibition at 1 µM (ICAM-1) of 64% and an inhibition at 1 µM (VCAM-1) of 46%. For the same compound, the melting point was 226 to 229 °C.
Work on `Nc1csc(-c2cc3c(Oc4ccc(Cl)cc4)cncc3s2)n1` [Example 295, 2-[4-(4-Chlorophenoxy)thieno[2,3-c]pyridin-2-yl]-1,3-thiazol-4-amine] yielded an inhibition at 1 µM (E-Selectin) of 59%, an inhibition at 1 µM (ICAM-1) of 56% and an inhibition at 1 µM (VCAM-1) of 44%. For the same compound, the melting point was 168 to 170 °C (dec.).
Work on `O=C(NCCO)c1cc2c(Oc3ccc(Cl)cc3)cnc(Cl)c2s1` [Example 313, 7-Chloro-4-(4-chlorophenoxy)-N-(2-hydroxyethyl)thieno[2,3-c]pyridine-2-carboxamide] yielded an inhibition at 1 µM (E-Selectin) of 57%, an inhibition at 1 µM (ICAM-1) of 68% and an inhibition at 1 µM (VCAM-1) of 39%. For the same compound, the melting point was 129 to 132 °C.
With `O=C(NCCO)c1cc2c(Oc3ccc(C(F)(F)F)cc3)cnc(Cl)c2s1` [Example 320] the “CAM ELISA % Inhibition at 1 μM E-Selectin” value (E-Selectin) was 64%, the “CAM ELISA % Inhibition at 1 μM ICAM-1” value (ICAM-1) was 67% and the “CAM ELISA % Inhibition at 1 μM VCAM-1” value (VCAM-1) was 55%.
With `CNC(=O)c1nc2cncc(Oc3ccc(C)cc3)c2s1` [Example 325] the “CAM ELISA % Inhibition at 1 μM E-Selectin” value (E-Selectin) was 76%, the “CAM ELISA % Inhibition at 1 μM ICAM-1” value (ICAM-1) was 68% and the “CAM ELISA % Inhibition at 1 μM VCAM-1” value (VCAM-1) was 42%.
`NC(=O)c1cc2c(C=Cc3ccccc3)cncc2s1` [Example 329, 4-(2-Phenylethenyl)thieno[2,3-c]pyridine-2-carboxamide] gave an inhibition at 1 µM (E-Selectin) of 72%, an inhibition at 1 µM (ICAM-1) of 62% and an inhibition at 1 µM (VCAM-1) of 64%.
In the case of `NC(=O)c1cc2c(Oc3ccc(Cl)cc3)c(Cl)ncc2s1` [Example 340, 5-Chloro-4-(4-chlorophenoxy)thieno[2,3-c]pyridine-2-carboxamide], the inhibition at 1 µM (E-Selectin) was 18%, the inhibition at 1 µM (ICAM-1) was 33% and the inhibition at 1 µM (VCAM-1) was 20%.
